Measured values: patent publication US10080741B2, “Isoxazole derivatives as FXR agonists and methods of use thereof” (Enanta Pharmaceuticals, Inc., priority 2016, dated 2018)

Biological target: T1, human FXR (NR1H4) (Homo sapiens, UniProt Q96RI1)
T1 construct: host or cells: CHO (Chinese hamster ovary) reporter cells
T1 sequence (Q96RI1 1-486): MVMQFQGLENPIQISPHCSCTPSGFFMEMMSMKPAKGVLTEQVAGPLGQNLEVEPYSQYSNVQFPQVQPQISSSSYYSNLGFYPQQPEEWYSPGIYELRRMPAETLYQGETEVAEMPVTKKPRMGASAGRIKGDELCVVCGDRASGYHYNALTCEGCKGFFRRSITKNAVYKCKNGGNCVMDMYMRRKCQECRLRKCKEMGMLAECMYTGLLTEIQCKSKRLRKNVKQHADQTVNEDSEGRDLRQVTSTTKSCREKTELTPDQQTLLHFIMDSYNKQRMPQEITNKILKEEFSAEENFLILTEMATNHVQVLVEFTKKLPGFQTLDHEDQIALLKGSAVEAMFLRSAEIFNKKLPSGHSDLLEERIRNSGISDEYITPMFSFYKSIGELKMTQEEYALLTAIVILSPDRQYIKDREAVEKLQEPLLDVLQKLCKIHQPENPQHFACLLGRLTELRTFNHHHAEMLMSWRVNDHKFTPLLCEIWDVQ
Assay: Human FXR (NR1H4) Assay, luciferase reporter in CHO cells (Indigo Bioscience kit IB00601)
Assay type: cell-based
Conditions: for EC50: CHO cells expressing human NR1H4, 22 hours incubation, potency ranges; for Efficacy (%): efficacy normalized to CDCA set as 100%
Excerpt: Human FXR (NR1H4) Assay Determination of a ligand mediated Gal4 promoter driven transactivation to quantify ligand binding mediated activation of FXR. FXR Reporter Assay kit purchased from Indigo Bioscience (Catalogue number: IB00601) to determine the potency and efficacy of compound developed by Enanta that can induce FXR activation. The principle application of this reporter assay system is to quantify functional activity of human FXR. The assay utilizes non-human mammalian cells, CHO (Chinese hamster ovary) cells engineered to express human NR1H4 protein (referred to as FXR). Reporter cells also incorporate the cDNA encoding beetle luciferase which catalyzes the substrates and yields photon emission. Luminescence intensity of the reaction is quantified using a plate-reading luminometer, Envision. Reporter Cells include the luciferase reporter gene functionally linked to an FXR responsive promoter. Thus, quantifying changes in luciferase expression in the treated reporter cells provides a sensitive surrogate measure of the changes in FXR activity. […] The assay is according to the manufacturer's instructions. […] Retrieve Reporter Cells from −80° C. storage. Perform a rapid thaw of the frozen cells by transferring a 10 ml volume of 37° C. cell recovery medium into the tube of frozen cells. Recap the tube of Reporter Cells and immediately place it in a 37° C. water bath for 5-10 minutes. Retrieve the tube of Reporter Cell Suspension from the water bath. Sanitize the outside surface of the tube with a 70% alcohol swab, and then transfer it into the cell culture hood. Dispense 90 μl of cell suspension into each well of the 96-well Assay Plate. Transfer the plate into 37° C. incubator, allowing the cells adherent to the bottom of the well. Dilute compounds in Dilution Plate (DP), and administrate to cells at Assay Plate (AP). DMSO content of the samples was kept at 0.2%. Cells were incubated for additional 22 hours before luciferase activities were measured. Thirty minutes before intending to quantify FXR activity, remove Detection Substrate and Detection Buffer from the refrigerator and place them in a low-light area so that they may equilibrate to room temperature. Remove the plate's lid and discard all media contents by ejecting it into an appropriate waste container. Gently tap the inverted plate onto a clean absorbent paper towel to remove residual droplets. Cells will remain tightly adhered to well bottoms. Add 100 μl of luciferase detection reagent to each well of the assay plate. Allow the assay plate to rest at room temperature for at least 5 minutes following the addition of LDR. Set the instrument (Envision) to perform a single 5 second “plate shake” prior to reading the first assay well. Read time may be 0.5 second (500 mSec) per well.

CC(C)c1onc(-c2c(Cl)cccc2Cl)c1COc1ccc2cc(-c3cccc(C(=O)O)c3)sc2c1 [Compound (1), reference compound]
EC50: 100 to 1000 nM
Efficacy (%): 220%

CC(C)c1onc(-c2c(Cl)cccc2Cl)c1COc1ccc2cc(-c3cccc(C(=O)NS(=O)(=O)N(C)C)c3)sc2c1 [Example 318]
EC50: 100 to 1000 nM
Efficacy (%): 116%

CC(C)c1onc(-c2c(Cl)cccc2Cl)c1COc1ccc2cc(-c3cccc(C(=O)NS(=O)(=O)C4CC4)c3)sc2c1 [Example 303]
EC50: 100 to 1000 nM
Efficacy (%): 190%

CC(C)c1onc(-c2c(Cl)cccc2Cl)c1COc1ccc2cc(-c3cccc(C(=O)NS(=O)(=O)c4ccc(C(C)(C)C)cc4)c3)sc2c1 [Example 312]
EC50: 1000 to 10000 nM
Efficacy (%): 132%
